This is an account of results in US20190077795A1, “ARGININE […] INHIBITORS AND USES THEREOF” (Epizyme, Inc., priority 2014, published 2019).

What is called IC50 is the point on the concentration scale where inhibition reaches its midpoint.

For assay [1], the target named is T1, human PRMT1 (Homo sapiens, UniProt Q99873).
T1 construct: GST-tagged PRMT1; made in house; host or cells: High Five insect cells (baculovirus, pFastBac1)
Description: PRMT1 Biochemical Assay. Particulars: peptide substrate, 3H-SAM Flashplate assay; read-out: PRMT1 IC50. The procedure, abridged:
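GST-tagged PRMT1 from baculovirus-infected cells, preincubated with compounds 30 min at room temperature in 20 mM Bicine pH 7.6, 1 mM TCEP, 0.005% BSG, 0.002% Tween 20. Reaction started with ³H-SAM plus biotinylated peptide, stopped with 300 µM cold SAM.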

Assay [2] has as its target T2, human PRMT6 (Homo sapiens, UniProt Q96LA8).
T2 construct: Flag-PRMT6-His; made in house; host or cells: HEK 293F cells (BacMam baculovirus, pFastBacMam)
Description: PRMT6 Biochemical Assay.

Assay [3] concerns mono-methyl arginine in RKO cells. The assay is described as follows: RKO Methylation Assay, In Cell Western (ICW). The assay is classed as cell-based. Particulars: 72 hours.
In assay [4] the target is human PRMT8 (Homo sapiens, UniProt Q9NR22). Description: PRMT8 Biochemical Assay. Particulars: PRMT8 IC50 (uM), peptide substrate, 3H-SAM Flashplate assay.
Chain of human PRMT8 (Q9NR22 whole entry): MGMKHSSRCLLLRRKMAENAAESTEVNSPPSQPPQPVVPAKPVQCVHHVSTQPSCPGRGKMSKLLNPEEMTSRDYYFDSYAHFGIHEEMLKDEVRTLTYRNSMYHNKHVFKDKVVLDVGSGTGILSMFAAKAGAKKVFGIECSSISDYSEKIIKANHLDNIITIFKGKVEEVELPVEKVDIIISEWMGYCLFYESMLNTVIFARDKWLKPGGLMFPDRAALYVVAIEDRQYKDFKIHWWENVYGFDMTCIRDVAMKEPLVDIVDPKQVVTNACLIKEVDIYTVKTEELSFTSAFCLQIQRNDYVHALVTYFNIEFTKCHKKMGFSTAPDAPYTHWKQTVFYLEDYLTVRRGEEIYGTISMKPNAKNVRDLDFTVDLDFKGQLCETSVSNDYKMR
Where [5] appears, read: peptide substrate, 3H-SAM Flashplate assay, read-out: PRMT6 IC50.

Read-outs that look alike come from different tables or passages of the source.

T1 sequence (Q99873 with tags, fused parts or gaps): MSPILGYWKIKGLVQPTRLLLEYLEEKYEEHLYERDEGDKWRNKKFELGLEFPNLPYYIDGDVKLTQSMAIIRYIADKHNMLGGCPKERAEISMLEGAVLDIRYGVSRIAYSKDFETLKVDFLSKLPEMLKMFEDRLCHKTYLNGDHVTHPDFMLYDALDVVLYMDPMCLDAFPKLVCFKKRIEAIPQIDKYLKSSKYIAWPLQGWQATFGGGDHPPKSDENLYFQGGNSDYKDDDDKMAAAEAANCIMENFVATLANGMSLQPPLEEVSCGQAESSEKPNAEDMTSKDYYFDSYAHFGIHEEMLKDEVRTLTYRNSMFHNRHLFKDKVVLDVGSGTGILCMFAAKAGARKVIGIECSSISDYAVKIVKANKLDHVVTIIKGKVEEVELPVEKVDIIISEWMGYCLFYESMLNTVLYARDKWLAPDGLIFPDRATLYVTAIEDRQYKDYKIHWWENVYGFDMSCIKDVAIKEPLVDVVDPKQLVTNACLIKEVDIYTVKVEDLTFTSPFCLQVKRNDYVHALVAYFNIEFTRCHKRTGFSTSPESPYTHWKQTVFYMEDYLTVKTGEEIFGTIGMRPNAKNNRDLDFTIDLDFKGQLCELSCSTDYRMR
T2 sequence (Q96LA8 with tags, fused parts or gaps): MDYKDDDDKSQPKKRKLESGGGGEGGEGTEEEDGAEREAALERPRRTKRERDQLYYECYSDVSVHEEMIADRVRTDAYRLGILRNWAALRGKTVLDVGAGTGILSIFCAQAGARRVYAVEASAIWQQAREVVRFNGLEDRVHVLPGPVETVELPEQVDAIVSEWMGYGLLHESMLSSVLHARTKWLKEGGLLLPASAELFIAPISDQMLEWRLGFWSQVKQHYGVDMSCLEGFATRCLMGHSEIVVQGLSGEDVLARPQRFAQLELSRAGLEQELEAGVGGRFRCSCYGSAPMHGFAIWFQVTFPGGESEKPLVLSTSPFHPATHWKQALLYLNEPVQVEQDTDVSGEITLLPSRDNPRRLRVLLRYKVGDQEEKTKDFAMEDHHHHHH

In the case of `CNCCN(C)Cc1c[nH]nc1-c1ccc(OCCOc2ccc(OCc3ccccc3)cc2)cc1` [Compound 9], the IC50 in assay [1] worked out at 5.12 nM; in assay [2] (setting [5]), 0.00222 µM; in assay [4], 0.024 µM. Besides, the “ICW EC30” value in assay [3] was 329.1 nM.
`CNCCN(C)Cc1c[nH]nc1-c1ccc(OCCOc2ccc(N3CCOCC3)cc2)cc1` [Compound 36]: the IC50 in assay [1] turned out to be 7.64 nM; in assay [2] (setting [5]), 0.00635 µM; in assay [4], 0.0244 µM. For the same compound, the “ICW EC30” value in assay [3] is 127.1 nM.
In the case of `CCN(CCOc1ccc(OC)cc1)c1ccc(-c2n[nH]cc2CN(C)CCNC)cc1` [Compound 20], the figures for the IC50 in assay [1], in assay [2] (setting [5]) and in assay [4] were 6.16 nM, 0.0169 µM and 0.0199 µM, respectively. Besides, the “ICW EC30” value in assay [3] was 336.2 nM.
The corresponding values for `CNCCN(C)Cc1c[nH]nc1-c1ccc(OCCOc2cccc(C(O)CO)c2)cc1` (centres unmarked) [Compound 148] are 8.22 nM, 0.00632 µM, 0.0398 µM and 8688 nM.
Regarding `CNCCN(C)Cc1c[nH]nc1-c1cc(OC2CCOCC2)cc(C(F)(F)F)c1` [Compound 123], the IC50 was determined as 43.9 nM in assay [1], 1.47 µM in assay [2] (setting [5]) and 0.376 µM in assay [4]. In addition, the “ICW EC30” value in assay [3] came out at 18364 nM.
The matching figures for `CCC(CC)Oc1ccc(-n2ncc(C)c2CN(C)CCNC)cc1` [Compound 114]: 38.1 nM, 0.59 µM, 0.0836 µM and 1855 nM.
As for `CNCCN(C)Cc1c[nH]nc1-c1ccc(OCCOc2ccc(C3CCOCC3)cc2)cc1` [Compound 11], the figures for the IC50 in assay [1], in assay [2] (setting [5]) and in assay [4] were 5.23 nM, 0.00403 µM and 0.0133 µM, respectively. For the same compound, in assay [3], the “ICW EC30” value was 113.8 nM.
For `CNCCN(C)Cc1c[nH]nc1-c1ccc(OC(CO)CC(C)C)cc1` (centres unmarked) [Compound 118], the IC50 came to 41.2 nM in assay [1], 0.0342 µM in assay [2] (setting [5]) and 0.0955 µM in assay [4]. The “ICW EC30” value in assay [3] came out at 1175 nM.
As for `CNCCN(C)Cc1c[nH]nc1-c1cc(C(=O)NCCOC)cc(C(F)(F)F)c1` [Compound 101], the IC50 amounted to 30.9 nM in assay [1], 2.66 µM in assay [2] (setting [5]) and 0.342 µM in assay [4]. Further, the “ICW EC30” value in assay [3] was determined as 11123 nM.
On to `CCN(c1ccc(-c2n[nH]cc2CN(C)CCNC)cn1)C1CCOCC1` [Compound 127], for which the IC50 was determined as 45.9 nM in assay [1], 3.45 µM in assay [2] (setting [5]) and 0.467 µM in assay [4]. Further, the “ICW EC30” value in assay [3] turned out to be 9190 nM.
In the case of `CNCCN(C)Cc1ccnn1-c1cc(OCCOC)cc(C(F)(F)F)c1` [Compound 154], the IC50 was 2030 nM in assay [1], above 10 µM in assay [2] (setting [5]) and 8.45 µM in assay [4]. Besides, the “ICW EC30” value in assay [3] is above 20000 nM.
The matching figures for `CN(CCN)Cc1c[nH]nc1-c1ccc2c(c1)OCC(=O)N2` [Compound 152]: 65.4 nM, 0.00828 µM, 0.459 µM and above 20000 nM.
Take `CNCCN(C)Cc1c[nH]nc1-c1ccc(OCCOc2cccc(OCCC3CCOCC3)c2)cc1` [Compound 14]: the half-maximal inhibitory concentration (IC50) in assay [1] came out at 5.49 nM; in assay [2] (setting [5]), 0.00518 µM; in assay [4], 0.0146 µM. For the same compound, the “ICW EC30” value in assay [3] amounted to 347.3 nM.
Take `CNCCN(C)Cc1c[nH]nc1-c1ccc(N(C)CCCOc2ccc(OC)cc2)cc1` [Compound 136]: the values for the IC50 in assay [1], in assay [2] (setting [5]) and in assay [4] were 5.21 nM, 0.00825 µM and 0.0124 µM, respectively. Moreover, in assay [3], the “ICW EC30” value was 176.2 nM.
The corresponding values for `CNCCN(C)Cc1c[nH]nc1-c1ccc(OC2CC(OCCN3CCOCC3)C2)cc1` (centres unmarked) [Compound 147] are 111 nM, 0.0164 µM, 0.162 µM and 4237 nM.
In the case of `CNCCN(C)Cc1c[nH]nc1-c1cc(F)c(OCC2CC2)c(C(F)(F)F)c1` [Compound 3], the values for the 50% inhibitory concentration (IC50) in assay [1], in assay [2] (setting [5]) and in assay [4] were 3.98 nM, 0.0195 µM and 0.0219 µM, respectively. In addition, the “ICW EC30” value in assay [3] stood at 664 nM.
On to `CNCCN(C)Cc1ccnn1C1CCC2(CCOCC2)CC1` [Compound 59], for which the 50% inhibitory concentration (IC50) in assay [1] came out at 12.2 nM; in assay [2] (setting [5]), 0.0347 µM; in assay [4], 0.042 µM. The “ICW EC30” value in assay [3] amounted to 246.4 nM.
As for `CNCCN(C)Cc1c[nH]nc1-c1ccc(OCC2COC2)cc1` [Compound 91], the IC50 amounted to 24.7 nM in assay [1], 0.0322 µM in assay [2] (setting [5]) and 0.282 µM in assay [4]. For the same compound, the “ICW EC30” value in assay [3] was found to be 3058 nM.
The matching figures for `CNCCN(C)Cc1c[nH]nc1-c1cc(CC(C)C)cc(OCCOC)c1` [Compound 71]: 15.3 nM, 4.39 µM, 0.0452 µM and 680 nM.
`CNCCN(C)Cc1c[nH]nc1-c1ccc(OC2CC(O)C2)cc1` (centres unmarked) [Compound 85]: the IC50 in assay [1] came to 21.3 nM; in assay [2] (setting [5]) it was 0.0144 µM; in assay [4] it was 0.0853 µM. In addition, the “ICW EC30” value in assay [3] is 3594 nM.
On to `CNCCN(C)Cc1c[nH]nc1-c1ccc(N2CCCC2)nc1` [Compound 78], for which the half-inhibitory concentration (IC50) in assay [1] stood at 18.3 nM; in assay [2] (PRMT6 IC50 (uM)) it was 0.0395 µM; in assay [4] it was 0.0309 µM. In addition, in assay [3], the “ICW EC30” value stood at 757.1 nM.
Turning to `CNCCN(C)Cc1c[nH]nc1-c1cc(OCCOC)cc(OC(F)(F)F)c1` [Compound 96], the figures for the half-maximal inhibitory concentration (IC50) in assay [1], in assay [2] (setting [5]) and in assay [4] were 26.7 nM, 5.13 µM and 0.108 µM, respectively. The “ICW EC30” value in assay [3] was found to be 1762 nM.
On to `CNCCN(C)Cc1c[nH]nc1-c1ccc(N(C)CC(C)C)cc1` [Compound 102], for which the half-maximal inhibitory concentration (IC50) in assay [1] was found to be 31.9 nM; in assay [2] (PRMT6 IC50 (uM)), 0.236 µM; in assay [4] it was 0.0819 µM. Besides, the “ICW EC30” value in assay [3] is 1057 nM.
On to `CNCCN(C)Cc1c[nH]nc1-c1cc(OCCOC)cc(C(F)F)c1` [Compound 24], for which the IC50 in assay [1] was 6.5 nM; in assay [2] (setting [5]), 0.212 µM; in assay [4], 0.132 µM. The “ICW EC30” value in assay [3] came to 1251 nM.
As for `CNCCN(C)Cc1c[nH]nc1-c1ccc2oc(C(C)C)nc2c1` [Compound 81], the values for the IC50 in assay [1], in assay [2] (setting [5]) and in assay [4] were 19.9 nM, 0.0445 µM and 0.0947 µM, respectively. In assay [3], the “ICW EC30” value came out at 927 nM.
On to `CNCCN(C)Cc1c[nH]nc1-c1cc(OCCC(C)(C)O)cc(C(F)(F)F)c1` [Compound 93], for which the half-inhibitory concentration (IC50) in assay [1] is 24.8 nM; in assay [2] (setting [5]) it was 3.38 µM; in assay [4], 0.326 µM. The “ICW EC30” value in assay [3] came out at 4550 nM.
On to `CNCCN(C)Cc1cnn(CCOC)c1-c1ccc(OC(C)C)cc1` [Compound 97], for which the IC50 in assay [1] was found to be 28.2 nM; in assay [2] (PRMT6 IC50 (uM)), 0.106 µM; in assay [4], 0.0601 µM. For the same compound, the “ICW EC30” value in assay [3] turned out to be 1994 nM.
Turning to `CNCCN(C)Cc1c[nH]nc1-c1ccc(OCCCS(C)(=O)=O)cc1` [Compound 128], the concentration for half-maximal inhibition (IC50) in assay [1] was determined as 46.4 nM; in assay [2] (setting [5]), 0.0343 µM; in assay [4] it was 0.131 µM. Also, the “ICW EC30” value in assay [3] was 13334 nM.
Consider `CCOCC(C)(C)c1ccc(-c2n[nH]cc2CN(C)CCNC)cc1` [Compound 105], for which the concentration for half-maximal inhibition (IC50) in assay [1] worked out at 34 nM; in assay [2] (PRMT6 IC50 (uM)), 0.0559 µM; in assay [4], 0.106 µM. Further, the “ICW EC30” value in assay [3] came out at 2748 nM.
Turning to `CNCCN(C)Cc1ccnn1-c1ccc(OC(C)C)cc1` [Compound 80], the IC50 in assay [1] amounted to 19.8 nM; in assay [2] (setting [5]), 0.114 µM; in assay [4], 0.0494 µM. Also, the “ICW EC30” value in assay [3] worked out at 411 nM.
The matching figures for `CNCCN(C)Cc1c[nH]nc1-c1ccc(OCCc2ccccc2)cc1` [Compound 25]: 6.68 nM, 0.011 µM, 0.0173 µM and 97 nM.
As to `CC(C)Cc1ccc(-c2n[nH]cc2CN(C)CCN)cc1C(F)(F)F` [Compound 48], the IC50 came to 10.4 nM in assay [1], 0.0427 µM in assay [2] (setting [5]) and 0.0237 µM in assay [4]. Moreover, the “ICW EC30” value in assay [3] was 3673 nM.
In the case of `CNCCN(C)Cc1c[nH]nc1-c1ccc(N2CCCC2=O)cc1` [Compound 99], the figures for the IC50 in assay [1], in assay [2] (setting [5]) and in assay [4] were 29.7 nM, 0.0633 µM and 0.127 µM, respectively. In addition, in assay [3], the “ICW EC30” value turned out to be 3944 nM.
The matching figures for `CNCCN(C)Cc1c[nH]nc1-c1ccc(OC2CCOCC2)nc1` [Compound 119]: 41.5 nM, 0.0329 µM, 0.123 µM and 1292 nM.
On to `CNCCN(C)Cc1c[nH]nc1[C@H]1CC[C@@H](OCCOc2ccc(OCCOC)cc2)CC1` [Compound 34], for which the IC50 in assay [1] came to 7.37 nM; in assay [2] (setting [5]) it was 0.0267 µM; in assay [4], 0.0135 µM. Besides, the “ICW EC30” value in assay [3] turned out to be 80.13 nM.
On to `CNCCN(C)Cc1c[nH]nc1-c1ccc(N(C)CCOc2ccc(OC)cc2)cc1` [Compound 41], for which the results for the IC50 in assay [1], in assay [2] (setting [5]) and in assay [4] were 8.8 nM, 0.00896 µM and 0.0334 µM, respectively. Further, in assay [3], the “ICW EC30” value is 351.4 nM.
The matching figures for `CNCCN(C)Cc1c[nH]nc1-c1ccc(OCCOc2ccc(OCCC(O)CO)cc2)cc1` (centres unmarked) [Compound 35]: 7.59 nM, 0.005 µM, 0.0219 µM and 422.7 nM.
Turning to `CNCCN(C)Cc1cnn(C)c1-c1cccc(OC2CC2)c1` [Compound 126], the IC50 in assay [1] is 45.5 nM; in assay [2] (setting [5]) it was 0.0737 µM; in assay [4], 0.0446 µM. Further, the “ICW EC30” value in assay [3] came out at 1272 nM.
